Read-outs that look alike come from different tables or passages of the source.
How the values were obtained:
HepG2 cells [1] = type: cell-based, human; details: control (DMSO) vs induced, 24 h; for Number of differentially expressed probes, Down: fold change <-2, 1,250 probes; for Number of differentially expressed probes, Up: fold change >2, 1,250 probes; for Number of differentially expressed probes, Either: fold change >2 or <-2, 1,250 probes
HepaRG cells [2] = type: cell-based, human; details: control (DMSO) vs induced, 24 h; for Number of differentially expressed probes, Down: fold change <-2, 1,250 probes; for Number of differentially expressed probes, Up: fold change >2, 1,250 probes; for Number of differentially expressed probes, Either: fold change >2 or <-2, 1,250 probes
[3] = tested on: primary human hepatocytes; type: cell-based; details: control (DMSO) vs induced, 24 h, 1,250 probes; for Number of differentially expressed probes, Down: fold change <-2; for Number of differentially expressed probes, Up: fold change >2; for Number of differentially expressed probes, Either: fold change >2 or <-2
CYP1A2 = details: human
CYP3A4 = details: human
in vitro [4] = details: human, Cytotoxicity class by LC50
HepG2 cells [5] = details: xCELLigence cell index, LC50 after 48 and 72 h
HepaRG cells [6] = details: xCELLigence cell index, LC50 after 48 and 72 h
[7] = tested on: cryopreserved human hepatocytes; details: for Cytotoxicity class by LC50: cryopreserved HH (3 donors), xCELLigence cell index, LC50 after 48 and 72 h; for Cytotoxicity (in words): cryopreserved HH compared with HepG2 and HepaRG, xCELLigence
[8] = read-out: Cmax (the maximum concentration of a drug in the blood after dosing); in vivo studies; cited from earlier work
[9] = 100 mM stock in 100% DMSO; a 50 mM stock was prepared instead
in vitro [10] = details: human, Cytotoxicity class by LC50; remark: listed apart in the source
in vitro [11] = details: human, Cytotoxicity class by LC50; remark: listed apart in the source

## O=c1cc(-c2ccccc2)oc2ccc3ccccc3c12 [BNF, beta-naphthoflavone]
HepG2 cells [1]
  Number of differentially expressed probes, Down: 61
  Number of differentially expressed probes, Up: 31
  Number of differentially expressed probes, Either: 92
HepaRG cells [2]
  Number of differentially expressed probes, Down: 25
  Number of differentially expressed probes, Up: 106
  Number of differentially expressed probes, Either: 131
[3]; HH1
  Number of differentially expressed probes, Down: 50
  Number of differentially expressed probes, Up: 74
  Number of differentially expressed probes, Either: 124
[3]; HH2
  Number of differentially expressed probes, Down: 81
  Number of differentially expressed probes, Up: 64
  Number of differentially expressed probes, Either: 145
[3]; HH3
  Number of differentially expressed probes, Down: 35
  Number of differentially expressed probes, Up: 51
  Number of differentially expressed probes, Either: 86
CYP1A2
  Fold increase in CYP1A2 activity: 9.1 fold

## CCC1(c2ccccc2)C(=O)NC(=O)NC1=O [PB, phenobarbital]
HepG2 cells [1]
  Number of differentially expressed probes, Down: 60
  Number of differentially expressed probes, Up: 17
  Number of differentially expressed probes, Either: 77
HepaRG cells [2]
  Number of differentially expressed probes, Down: 25
  Number of differentially expressed probes, Up: 35
  Number of differentially expressed probes, Either: 60
[3]; HH1
  Number of differentially expressed probes, Down: 44
  Number of differentially expressed probes, Up: 46
  Number of differentially expressed probes, Either: 90
[3]; HH2
  Number of differentially expressed probes, Down: 121
  Number of differentially expressed probes, Up: 39
  Number of differentially expressed probes, Either: 160
[3]; HH3
  Number of differentially expressed probes, Down: 29
  Number of differentially expressed probes, Up: 76
  Number of differentially expressed probes, Either: 105
CYP2B6
  Effect on CYP2B6 activity: did not have any effect
CYP3A4
  Fold increase in CYP3A4 activity: 36.6 times

## CO[C@H]1/C=C/O[C@@]2(C)Oc3c(C)c(O)c4c(O)c(c(/C=N/N5CCN(C)CC5)c(O)c4c3C2=O)NC(=O)/C(C)=C\C=C\[C@H](C)[C@H](O)[C@@H](C)[C@@H](O)[C@@H](C)[C@H](OC(C)=O)[C@@H]1C [RIF, rifampicin]
HepG2 cells [1]
  Number of differentially expressed probes, Down: 22
  Number of differentially expressed probes, Up: 27
  Number of differentially expressed probes, Either: 49
HepaRG cells [2]
  Number of differentially expressed probes, Down: 22
  Number of differentially expressed probes, Up: 41
  Number of differentially expressed probes, Either: 63
[3]; HH1
  Number of differentially expressed probes, Down: 61
  Number of differentially expressed probes, Up: 26
  Number of differentially expressed probes, Either: 87
[3]; HH2
  Number of differentially expressed probes, Down: 49
  Number of differentially expressed probes, Up: 39
  Number of differentially expressed probes, Either: 88
[3]; HH3
  Number of differentially expressed probes, Down: 22
  Number of differentially expressed probes, Up: 59
  Number of differentially expressed probes, Either: 81

## CCCCc1oc2ccccc2c1C(=O)c1cc(I)c(OCCN(CC)CC)c(I)c1 [amiodarone]
In vitro [4]
  CC50: < 10 µM

## CC(=O)Oc1ccccc1C(=O)O [aspirin]
HepG2 cells [5]
  Cytotoxicity class by LC50: non cytotoxic
HepaRG cells [6]
  Cytotoxicity class by LC50: non cytotoxic
[7]
  Cytotoxicity class by LC50: non cytotoxic

## CCOC(=O)C(C)(C)Oc1ccc(Cl)cc1 [clofibrate]
HepG2 cells [5]
  Cytotoxicity class by LC50: non cytotoxic
HepaRG cells [6]
  Cytotoxicity class by LC50: non cytotoxic
[7]
  Cytotoxicity class by LC50: non cytotoxic

## C#C[C@]1(O)CC[C@H]2[C@@H]3CCC4=Cc5oncc5C[C@]4(C)[C@H]3CC[C@@]21C [danazol]
[8]
  Cmax: 160 nM

## CC(C)C(=O)Nc1ccc([N+](=O)[O-])c(C(F)(F)F)c1 [flutamide]
[7]
  Cytotoxicity (in words): induced cytotoxicity in HH only

## CC(=O)N1CCN(c2ccc(OCC3COC(Cn4ccnc4)(c4ccc(Cl)cc4Cl)O3)cc2)CC1 (stereo not shown) [ketoconazole]
[7]
  Cytotoxicity (in words): induced cytotoxicity in HH only
[9]
  Solubility of stock solution: solubility problems occurred at 100 mM

## CC(CCc1ccccc1)NCC(O)c1ccc(O)c(C(N)=O)c1 (stereo not shown) [labetalol]
[7]
  Cytotoxicity (in words): induced cytotoxicity in HH only

## Nc1c2c(nc3ccccc13)CCCC2 [tacrine]
In vitro [4]
  CC50: 50 to 100 µM

## CC/C(=C(\c1ccccc1)c1ccc(OCCN(C)C)cc1)c1ccccc1 [tamoxifen]
In vitro [10]
  CC50: 10 to 50 µM
In vitro [11]
  CC50: 10 to 50 µM
In vitro [4]
  CC50: < 10 µM
